Experimental data: publication PMC5515969, “Effects of 31 FDA approved small-molecule kinase inhibitors on isolated rat liver mitochondria” (Archives of Toxicology, 2016)
Structures can show the parent of a compound that is named as a salt. Where two headings read alike, the source gives them in different places.

Tests used:
[1] = system: isolated rat liver mitochondria; experiment: Mitochondrial oxygen consumption (glutamate/malate or succinate driven, state 4 and state 3); format: biochemical; details: DMSO treated samples set as 1; as to State 3 respiration driven by succinate at 10XCmax: key: 0 indicates that the drug had no effects (negative); as to State 3 respiration driven by succinate at 1XCmax: key: 0 indicates that the drug had no effects (negative)
Method in brief: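 Rat liver mitochondria (1 mg/ml protein) exposed 5 min to kinase inhibitors in 0.1% DMSO, then O2 consumption measured by Clark-type electrode with glutamate/malate or succinate (state 4), ADP added after 3 min (state 3). Rates normalized to 0.1% DMSO controls set to 1.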

RCC I = RCC I activity in submitochondrial particles; format: biochemical, rat; parameters: key to RCC I at 10XCmax / RCC I at 100XCmax / RCC I at 50XCmax / RCC I at 30XCmax / RCC I at 20XCmax: activity relative to DMSO-treated controls (control set as 1 = 100%); details: 10XCmax
Method in brief: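 Activity relative to DMSO (set as 1) after 15-min exposure of submitochondrial particles (1 mg/ml) to compound. RCC I is defined as rotenone-sensitive activity and RCC II is followed at 600 nm over 6 min.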

[2] = parameters: method as in product labeling; details: ref product labeling, cited from earlier work
[3] = cited from earlier work
[4] = system: isolated rat liver mitochondria; experiment: Mitochondrial ROS production (CM-H2DCFDA); details: DMSO treated samples set as 1
[5] = cited from earlier work; remark: listed apart in the source
RCC II = target: T1, RCC II (Rattus norvegicus, UniProt P21913+Q641Z9+Q6PCT8+Q920L2); experiment: RCC II activity in submitochondrial particles; format: biochemical; parameters: key: activity relative to DMSO-treated controls (control set as 1 = 100%)
T1 construct: Submitochondrial particles were prepared by subjecting the intact mitochondria to three successive freeze–thaw cycles; from tissue; host or cells: rat liver mitochondria, used as submitochondrial particles
T1 sequence (Q920L2 35-656): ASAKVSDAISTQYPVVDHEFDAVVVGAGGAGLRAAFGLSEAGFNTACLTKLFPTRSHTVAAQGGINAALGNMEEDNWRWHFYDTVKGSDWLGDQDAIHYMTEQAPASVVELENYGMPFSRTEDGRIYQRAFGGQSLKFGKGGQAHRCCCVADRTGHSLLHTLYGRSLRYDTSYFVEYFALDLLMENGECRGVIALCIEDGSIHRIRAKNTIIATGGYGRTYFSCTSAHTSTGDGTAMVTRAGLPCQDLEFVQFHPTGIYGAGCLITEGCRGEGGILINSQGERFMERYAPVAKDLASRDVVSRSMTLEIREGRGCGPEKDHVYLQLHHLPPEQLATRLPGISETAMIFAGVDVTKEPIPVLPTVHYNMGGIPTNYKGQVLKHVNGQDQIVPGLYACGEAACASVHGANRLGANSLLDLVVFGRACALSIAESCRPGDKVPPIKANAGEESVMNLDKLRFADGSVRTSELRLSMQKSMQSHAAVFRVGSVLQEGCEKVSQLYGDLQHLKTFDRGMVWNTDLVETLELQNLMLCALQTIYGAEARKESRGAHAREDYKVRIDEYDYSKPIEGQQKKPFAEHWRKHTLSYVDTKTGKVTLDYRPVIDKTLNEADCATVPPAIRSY
T1 sequence (P21913 31-282): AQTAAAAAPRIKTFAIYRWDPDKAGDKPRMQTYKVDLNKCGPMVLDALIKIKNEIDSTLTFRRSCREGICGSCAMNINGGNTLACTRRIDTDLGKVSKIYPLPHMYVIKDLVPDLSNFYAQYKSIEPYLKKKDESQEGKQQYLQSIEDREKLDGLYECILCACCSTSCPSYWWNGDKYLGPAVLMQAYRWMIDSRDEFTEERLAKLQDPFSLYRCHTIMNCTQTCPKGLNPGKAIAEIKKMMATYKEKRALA
T1 sequence (Q641Z9 1-169): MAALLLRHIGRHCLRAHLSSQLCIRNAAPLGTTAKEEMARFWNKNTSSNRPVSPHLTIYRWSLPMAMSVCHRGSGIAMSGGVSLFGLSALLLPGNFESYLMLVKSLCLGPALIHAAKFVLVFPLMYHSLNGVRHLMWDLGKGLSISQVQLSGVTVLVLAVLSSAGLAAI
T1 sequence (Q6PCT8 57-159): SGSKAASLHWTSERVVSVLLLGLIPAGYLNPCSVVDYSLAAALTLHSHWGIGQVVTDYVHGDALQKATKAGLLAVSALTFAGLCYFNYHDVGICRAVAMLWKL
Method in brief: (§1)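 First, submitochondrial particles (1 mg/ml) are incubated with inhibitor for 15 min. Next, complex activities are followed spectrophotometrically, with RCC I taken as the difference between buffers lacking and containing rotenone. Finally, activities are expressed relative to DMSO controls set at 1.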

[6] = system: isolated rat liver mitochondria; details: positive control alamethicin treated samples
[7] = system: isolated rat liver mitochondria; experiment: Mitochondrial inner membrane potential (MMP), Rhodamine 123; format: biochemical; details: difference in signal between KI and DMSO treated samples at the end of experiments
Excerpt: Fig. 3 KI effects on mitochondrial inner membrane potential (MMP). […] In a, c, data are means and standard derivations from three separate experiments. *p < 0.05 as compared to DMSO-treated samples at the end of experiments. In b, data are means of two independent experiments

RCC V = RCC V activity in submitochondrial particles; format: biochemical, rat; as to RCC V at 5XCmax: key: 0 indicates that the drug had no effects (negative)
Method in brief: as §1

[8] = Solubility of drug in DMSO stock / reaction buffer at multiples of Cmax; format: physicochemical
Excerpt: (§2) Supplement 204_2016_1918_MOESM3_ESM.xlsx, sheet "Sheet1" | column: 100 Cmax; 50 Cmax; note

[9] = system: isolated rat liver mitochondria; experiment: Mitochondrial swelling (absorbance at 535 nm); format: biochemical; details: difference in signal between KI and DMSO treated samples at the end of experiments; as to Swelling 5XCmax: key: 0 indicates that the drug had no effects (negative)
RCC III = RCC III activity in submitochondrial particles; format: biochemical, rat; parameters: key to RCC III at 100XCmax: activity relative to DMSO-treated controls (control set as 1 = 100%); details: 100XCmax
Method in brief: as §1

[10] = Solubility of DMSO stock for 100X/50X Cmax testing; format: physicochemical
Excerpt: as §2

[11] = in vivo; cited from earlier work
RCC IV = RCC IV activity in submitochondrial particles; format: biochemical, rat; parameters: key to RCC IV at 50XCmax / RCC IV at 100XCmax: activity relative to DMSO-treated controls (control set as 1 = 100%); details: 50XCmax; DMSO treated samples set as 1; in %
Method in brief: as §1

[12] = relative to DMSO treated samples
[13] = 50XCmax, DMSO treated samples set as 1

In the case of C#Cc1cccc(Nc2ncnc3cc(OCCOC)c(OCCOC)cc23)c1 [erlotinib hydrochloride], the “State 3 respiration driven by glutamate/malate at 1XCmax” value ([1]; 1XCmax) is reported as 0, the “State 3 respiration driven by succinate at 1XCmax” value ([1]; 1XCmax) is reported as 0 and the “State 4 respiration driven by glutamate/malate at 1XCmax” value ([1]; 1XCmax) is reported as 0. For the same molecule, the “State 4 respiration driven by succinate at 1XCmax” value ([1]; 1XCmax) was 0, the “State 3 respiration driven by glutamate/malate at 2.5XCmax” value ([1]; 2.5XCmax) was 0 and the “State 3 respiration driven by succinate at 2.5XCmax” value ([1]; 2.5XCmax) was 0. The “State 4 respiration driven by glutamate/malate at 2.5XCmax” value ([1]; 2.5XCmax) was 0, the “State 4 respiration driven by succinate at 2.5XCmax” value ([1]; 2.5XCmax) was 0 and the “State 3 respiration driven by glutamate/malate at 5XCmax” value ([1]; 5XCmax) was 0. For the same molecule, the “State 3 respiration driven by succinate at 5XCmax” value ([1]; 5XCmax) was 0, the “State 4 respiration driven by glutamate/malate at 5XCmax” value ([1]; 5XCmax) was 0 and the “State 4 respiration driven by succinate at 5XCmax” value ([1]; 5XCmax) was 0. For the same molecule, the “State 3 respiration driven by glutamate/malate at 10XCmax” value ([1]; 10XCmax) was 0, the “State 3 respiration driven by succinate at 10XCmax” value ([1]; 10XCmax) was 0 and the “State 4 respiration driven by glutamate/malate at 10XCmax” value ([1]; 10XCmax) was 0. The “State 4 respiration driven by succinate at 10XCmax” value ([1]; 10XCmax) was 0, the “RCC I at 10XCmax” value (RCC I; [12]) was 0 and the Labeling for cardiotoxicity ([2]; BBW: black box warning, W&P: Warnings and Precautions) was “W&P: Myocardial Infarction/Ischemia”. For the same molecule, the “Potential for cardiotoxicity (based on labeling)” value [2] was 1, the Cmax ([3]; read-out: Cmax at µM, therapeutic maximal blood concentration, ref product labeling) was 3.44 µM and the “Cmax” value ([3]; therapeutic maximal blood concentration, ref product labeling) was 1480 ng/mL. For the same molecule, the “ROS measured by CM-H2DCFDA at 1XCmax” value [4] was 0, the “ROS measured by CM-H2DCFDA at 2.5XCmax” value [4] was 0 and the “ROS measured by CM-H2DCFDA at 5XCmax” value [4] was 0. The “ROS measured by CM-H2DCFDA at 10XCmax” value [4] was 0, the “DILI potential (based on labeling)” value ([5]; 1 = DILI positive, 0 = negative, ref product labeling) was 1 and the “Labeling for DILI” value ([5]; in vivo) was “W&P: fatal DILI”. For the same molecule, the “RCC II at 1.0XCmax” value (RCC II; [12]) was 0, the “RCC II at 2.5XCmax” value (RCC II; [12]) was 0 and the “RCC II at 5XCmax” value (RCC II; [12]) was 0. For the same molecule, the “RCC II at 10XCmax” value (RCC II; [12]) was 0, the “Cytochrome c release 1XCmax” value [6] was 0 and the “Cytochrome c release 2.5XCmax” value [6] was 0. For the same molecule, the “Cytochrome c release 5XCmax” value [6] was 0, the “Cytochrome c release 10XCmax” value [6] was 0 and the “MMP measured by Rhodamine 123 at 1XCmax” value [7] was 0. For the same molecule, the “MMP measured by Rhodamine 123 at 2.5XCmax” value [7] was 0, the “MMP measured by Rhodamine 123 at 5XCmax” value [7] was 0 and the “MMP measured by Rhodamine 123 at 10XCmax” value [7] was 0. For the same molecule, the “RCC V at 5XCmax” value (RCC V; [12]) was 0, the “RCC V at 10XCmax” value (RCC V; 10XCmax, relative to DMSO treated samples) was 83.52±2.96 and the “Solubility of stock for 50 Cmax” value ([8]; DMSO stock for 50 Cmax) was “not soluble”. For the same molecule, the “Solubility of stock for 100 Cmax” value ([8]; DMSO stock for 100 Cmax) was “not soluble”, the “Swelling 1XCmax” value [9] was 0 and the “Swelling 2.5XCmax” value [9] was 0. The “Swelling 5XCmax” value [9] was 0 and the “Swelling 10XCmax” value [9] was 0.

With C=CC(=O)Nc1cc(Nc2nccc(-c3cn(C)c4ccccc34)n2)c(OC)cc1N(C)CCN(C)C.CS(=O)(=O)O [osimertinib mesylate] the “RCC III at 100XCmax” value (RCC III) was 0, the “State 3 respiration driven by succinate at 1XCmax” value ([1]; 1XCmax) was 0 and the “State 4 respiration driven by succinate at 1XCmax” value ([1]; 1XCmax) was 0. The “State 3 respiration driven by succinate at 2.5XCmax” value ([1]; 2.5XCmax) was 0, the “State 4 respiration driven by succinate at 2.5XCmax” value ([1]; 2.5XCmax) was 0 and the “State 3 respiration driven by succinate at 5XCmax” value ([1]; 5XCmax) was 0. The “State 4 respiration driven by succinate at 5XCmax” value ([1]; 5XCmax) was 0, the “State 3 respiration driven by succinate at 10XCmax” value ([1]; 10XCmax) was 0 and the “State 4 respiration driven by succinate at 10XCmax” value ([1]; 10XCmax) was 0. The “State 3 respiration driven by succinate at 20XCmax” value ([1]; 20XCmax) was 0, the “State 4 respiration driven by succinate at 20XCmax” value ([1]; 20XCmax) was 0 and the “State 3 respiration driven by succinate at 30XCmax” value ([1]; 30XCmax) was 0. For the same molecule, the “State 4 respiration driven by succinate at 30XCmax” value ([1]; 30XCmax) was 0, the “State 3 respiration driven by succinate at 50XCmax” value ([1]; 50XCmax) was 0 and the “State 4 respiration driven by succinate at 50XCmax” value ([1]; 50XCmax) was 0. For the same molecule, the “State 3 respiration driven by succinate at 100XCmax” value ([1]; 100XCmax) was 0, the “State 4 respiration driven by succinate at 100XCmax” value ([1]; 100XCmax) was 0 and the “RCC I at 10XCmax” value (RCC I; DMSO treated samples set as 1) was 0. For the same molecule, the “note (DMSO stock)” value [10] was 50 mM will precipitate, the Cmax ([3]; human, in vivo) was 0.5 µM and the “ROS measured by CM-H2DCFDA at 1XCmax” value [4] was 0. For the same molecule, the “ROS measured by CM-H2DCFDA at 2.5XCmax” value [4] was 0, the “ROS measured by CM-H2DCFDA at 5XCmax” value [4] was 0 and the “ROS measured by CM-H2DCFDA at 10XCmax” value [4] was 0. For the same molecule, the “ROS measured by CM-H2DCFDA at 20XCmax” value ([4]; 20XCmax) was 0, the “ROS measured by CM-H2DCFDA at 30XCmax” value ([4]; 30XCmax) was 1.38±0.13 and the “ROS measured by CM-H2DCFDA at 50XCmax” value ([4]; 50XCmax) was 1.80±0.32. The “ROS measured by CM-H2DCFDA at 100XCmax” value ([4]; 100XCmax) was 3.35±0.28, the “RCC II at 1.0XCmax” value (RCC II; DMSO treated samples set as 1) was 0 and the “RCC II at 2.5XCmax” value (RCC II; DMSO treated samples set as 1) was 0. The “RCC II at 5XCmax” value (RCC II; DMSO treated samples set as 1) was 0, the “RCC II at 10XCmax” value (RCC II; DMSO treated samples set as 1) was 0 and the “RCC II at 20XCmax” value (RCC II; 20XCmax, DMSO treated samples set as 1) was 0. For the same molecule, the “RCC II at 30XCmax” value (RCC II; 30XCmax, DMSO treated samples set as 1) was 0, the “RCC II at 50XCmax” value (RCC II; [13]) was 0 and the “RCC II at 100XCmax” value (RCC II; 100XCmax, DMSO treated samples set as 1) was 0. The Labeling for cardiotoxicity [11] was “W&P: QTc Interval Prolongation; Cardiomyopathy”, the “Potential for cardiotoxicity (based on labeling)” value [11] was 1 and the “Cytochrome c release 1XCmax” value [6] was 0. For the same molecule, the “Cytochrome c release 2.5XCmax” value [6] was 0, the “Cytochrome c release 5XCmax” value [6] was 0 and the “Cytochrome c release 10XCmax” value [6] was 0. The “Cytochrome c release 20XCmax” value ([6]; 20XCmax) was 0, the “Cytochrome c release 30XCmax” value ([6]; 30XCmax) was 0 and the “Cytochrome c release 50XCmax” value ([6]; 50XCmax) was 0. For the same molecule, the “Cytochrome c release 100XCmax” value ([6]; 100XCmax) was 6.58±0.09 percentage of the positive control group, the “MMP measured by Rhodamine 123 at 1XCmax” value [7] was 0 and the “MMP measured by Rhodamine 123 at 2.5XCmax” value [7] was 0. For the same molecule, the “MMP measured by Rhodamine 123 at 5XCmax” value [7] was 0, the “MMP measured by Rhodamine 123 at 10XCmax” value [7] was 0 and the “MMP measured by Rhodamine 123 at 20XCmax” value ([7]; 20XCmax) was 0. For the same molecule, the “MMP measured by Rhodamine 123 at 30XCmax” value ([7]; 30XCmax) was 0, the “MMP measured by Rhodamine 123 at 50XCmax” value ([7]; 50XCmax) was 0 and the “MMP measured by Rhodamine 123 at 100XCmax” value ([7]; 100XCmax) was 0. For the same molecule, the “RCC V at 5XCmax” value (RCC V; DMSO treated samples set as 1) was 0, the “RCC V at 50XCmax” value (RCC V; [13]) was 0 and the “RCC IV at 50XCmax” value (RCC IV) was 0. The “Swelling 1XCmax” value [9] was 0, the “Swelling 2.5XCmax” value [9] was 0 and the “Swelling 5XCmax” value [9] was 0. The “Swelling 10XCmax” value [9] was 0, the “Swelling 20XCmax” value ([9]; 20XCmax) was 0 and the “Swelling 30XCmax” value ([9]; 30XCmax) was 0. The “Swelling 50XCmax” value ([9]; 50XCmax) was 0 and the “Swelling 100XCmax” value ([9]; 100XCmax) was 0.
